According to PMC1190152, “Archazolid and apicularen: Novel specific V-ATPase inhibitors” (BMC Biochemistry, 2005):

What was measured:
[1] = system: L-929; experiment: Growth inhibition of L-929 cells (MTT assay); type: cell-based; conditions: Mus musculus, L929, 120 h; L-929, murine connective tissue; MTT after 5 days
Description: (§1) Cell lines were obtained from the German Collection of Microorganisms and Cell Cultures (DSMZ). Cell lines 3Y1 and M1 (embryonal fibroblasts from 129/Ola × C57BL/6 mice, [30]) were a generous gift from Dr. S. Miyamoto, Fukoka, Japan, and Dr. P. F. Mühlradt, Braunschweig, Germany. All cell lines were cultivated under conditions recommended by the supplier. Growth inhibition was measured in microtiterplates. Aliquots of 120 μl of the suspended cells (50,000/ml) were given to 60 μl of a serial dilution of the inhibitor. After 5 days, growth was determined using the MTT assay.

[2] = system: 3Y1; experiment: Growth inhibition of 3Y1 cells (MTT assay); type: cell-based, rat; conditions: 120 h; 3Y1, rat embryogenic fibroblast cell line; MTT after 5 days; read-out: IC50 growth inhibition
Description: as §1

[3] = system: KB-V1; experiment: Growth inhibition of multidrug-resistant KB-V1 cells (MTT assay), with or without verapamil; type: cell-based; conditions: 120 h; KB-V1, mdr human cervix carcinoma; without verapamil; MTT after 5 days
Description: The novel antibiotics archazolids and apicularens (Fig. 1) were checked for their impact on the cell growth of a variety of mammalian cell lines from different tissues (Tab. 1). […] Apicularen B was the only exception, with an average IC50 value two orders of magnitude higher. Growth inhibition of the multidrug-resistant cell line KB-V1 was also measured in the presence of verapamil. […] The data in Tab 1. show, that unlike the archazolids, the apicularens are poor substrates of Pgp. To visualize the impact of the antibiotics, PtK2 (potoroo kidney) cells were incubated with the inhibitors and stained for intact acidic lysosomes (Fig. 2). […] The same observation was made with KB-3-1 cells (data not shown). […] Unlike the cell lines listed in Tab. 1, the growth of PtK2 cells was not completely stopped. The same holds true for A-498 cells (human kidney carcinoma). Both cell lines grow epithelial-like. There was obviously a differential reaction of cell lines to V-ATPase inhibitors. For A-431 cells (human epidermoid carcinoma) a dependence on the expression of the EGF receptor was shown.
as §1

[4] = system: M1; experiment: Growth inhibition of M1 cells (MTT assay); type: cell-based, mouse; conditions: 120 h; M1, mouse embryogenic fibroblast cell line; MTT after 5 days; read-out: IC50 growth inhibition
Description: as §1

[5] = biological target: T1, V-ATPase holoenzyme from the midgut of the tobacco hornworm (Manduca sexta, UniProt P31403); experiment: Inhibition of purified V-ATPase holoenzyme activity; type: biochemical
T1 construct: purified V-ATPase holoenzyme from the midgut of the tobacco hornworm; from tissue; host or cells: midgut of fifth instar Manduca sexta larvae
Description: (§2) The V-ATPase holoenzyme was purified as published elsewhere. Preparation of highly purified membranes containing Na^+/K^+-ATPase from pig kidney followed the protocol of Jørgensen with the three main steps of differential centrifugation, incubation with SDS in the presence of ATP and sucrose density gradient centrifugation in a fixed angle rotor, and led to a specific enzyme activity which was in the same range as that reported by the authors. The resulting sample was stored frozen at -20°C. To prepare crude membrane extracts, the hearts of three mice were washed three times with an ice-cold buffer of pH 8.1 consisting of 0.25 M sucrose, 5 mM Tris-HCl, 5 mM EDTA, and 10 mM Pefabloc SC (Biomol), homogenized in 5 ml of this buffer and centrifuged at 4°C for 25 min at 233,000 × gmax in a fixed angle rotor. The resulting pellet was resuspended in 5 ml of a buffer of pH 7.5, consisting of 5 mM Tris-MOPS (3-morpholinopropanesulfonic acid), 10 mM NaCl, 10 mM Pefabloc SC, 9.6 mM 2-mercaptoethanol, 0.53 mM EGTA and 0.1 % Triton X-100. After an aliquot for protein determination had been taken, 10% bovine serum albumin (final concentration) was added to the suspension which was then stored on ice until the activity assays were run. Beef heart mitochondria were isolated by differential centrifugation, following the protocol of Smith by using a blender to homogenize the heart mince. The initial homogenization buffer consisted of 250 mM saccharose, 10 mM KH2PO4, 10 mM Tris, 2 mM EGTA, 2 mM MgCl2, pH 7.4, and further isolation procedures were carried out in the same medium without EGTA [24]. Submitochondrial particles were obtained by ultrasonic treatment of the mitochondria.
(§3) Standard V-ATPase assays with a final volume of 160 μl and a pH of 8.1 consisted of 3–4 μg of protein, 50 mM Tris-MOPS, 3 mM 2-mercaptoethanol, 1 mM MgCl2, 20 mM KCl, 0.003% C12E10, 20 mM NaCl, and 3 mM Tris-HCl. After 5 min of pre-incubation at 30°C with or without inhibitors, 1 mM Tris-ATP was added and after incubation for 2 min the reaction was stopped by placing the tube in liquid nitrogen. Assays using Na^+/K^+-ATPase were performed in 160 μl at pH 7.5 and contained 0.5 μg of protein, 50 mM Tris-MOPS, 5 mM imidazole, 0.2 mM EDTA, 4 mM MgCl2, 20 mM KCl and 100 mM NaCl. After 5 min of pre-incubation at 37°C with or without inhibitors, 3 mM Tris-ATP was added and after 1 min of incubation the reaction was stopped by placing the tube in liquid nitrogen. […] After 5 min of pre-incubation at 30°C with or without inhibitors, 1 mM Tris-ATP was added and after an incubation time of 10 min the reaction was stopped by placing the tubes in liquid nitrogen. ATPase assays with submitochondrial particles from beef heart were performed in a final volume of 1 ml and a pH of 8.0. The samples contained 9–12 μg protein, 50 mM Tris, 50 mM KCl and 2.5 mM MgCl2. After 5 min of preincubation with or without inhibitors, 5 mM ATP was added, and after an additional incubation time of 15 min the reaction was stopped by the addition of 0.4 ml of 20 % TCA.
(§4) Inorganic phosphate produced in the assays of V-ATPase, Na^+/K^+-ATPase and mouse heart F-ATPase was measured according the protocol of Wieczorek et al., while the determination of inorganic phosphate produced in the assays of beef heart F-ATPase followed the method of Fiske and Subarrow using ascorbic acid as reducing agent.
Fifth instar larvae of M. sexta (Lepidoptera, Sphingidae), weighing 6–8 g, were reared under long day conditions (16 h of light) at 27°C using a synthetic diet modified according to Bell et al.

[6] = system: A-594; parameters: method as in PMID 10048565; conditions: A-594, human lung carcinoma; ref [15]; read-out: IC50 growth inhibition; cited from earlier work
[7] = system: bacterial growth; conditions: ref [11],[15],[17]; cited from earlier work
[8] = biological target: T2, F-ATPase (Mus musculus, UniProt P56480); experiment: Inhibition of F-ATPase activity in crude membranes from mouse heart; type: biochemical; conditions: mouse heart crude membranes
T2 construct: we prepared mitochondria rich crude membranes from mouse heart; from tissue; host or cells: mouse heart, crude membrane extract
Description: as §2, §3, §4

[9] = biological target: T3, F-ATPase (Bos taurus, UniProt P00829); experiment: Inhibition of F-ATPase activity in submitochondrial particles from beef heart; type: biochemical; conditions: beef heart submitochondrial particles
T3 construct: Submitochondrial particles were obtained by ultrasonic treatment of the mitochondria; from tissue; host or cells: beef heart mitochondria, submitochondrial particles
Description: as §2, §3, §4

[10] = system: fungi; conditions: ref [11],[15],[17]; cited from earlier work

T1 sequence (P31403 whole entry): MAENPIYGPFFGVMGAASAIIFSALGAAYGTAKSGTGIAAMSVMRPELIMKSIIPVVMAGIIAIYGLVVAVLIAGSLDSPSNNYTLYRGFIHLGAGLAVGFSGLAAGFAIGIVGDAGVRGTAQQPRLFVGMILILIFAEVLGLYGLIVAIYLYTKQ

Molecule | IC50 [1] [nM] | IC50 [2] [nM] | IC50 [3] [nM] | IC50 [4] [nM] | IC50 per mg of protein, purified V-ATPase ([5]; equivalent of the half-maximal concentration) | IC50 ([5]; purified holoenzyme, 3–4 μg protein, pH 8.1, 30°C, read-out: half-maximal inhibition concentration of purified V-ATPase) [nM] | IC50 [6] [nM] | inhibition of bacterial growth [7] | ATPase activity reduced to (remaining activity) ([8]; inhibitor 1 μM) | effect of increased inhibitor concentration on F-ATPase activity ([8]; inhibitor 10 μM) | ATPase activity reduced to (remaining activity) ([9]; inhibitor 1 μM) | effect of increased inhibitor concentration on F-ATPase activity ([9]; inhibitor 10 μM) | activity against fungi [10]
CC/C=C\C=C/C(=O)N/C=C/CC1CC2CC(O[C@@H]3O[C@H](CO)[C@@H](O)[C@H](O)[C@H]3NC(C)=O)CC(Cc3cccc(O)c3C(=O)O1)O2 (stereo partly shown) [apicularen B] | 620 | 310 | 1600 | 190 | ~2.4 nmol per mg of protein | ~60 | 310 | failed to inhibit |  |  |  |  | 
archazolid |  |  |  |  |  |  |  |  | approximately 80% | no substantial effect | approximately 80% | no substantial effect | weak activity
